For orientation: IC50 means the concentration needed to halve the response being measured.

T1 sequence (Q15858 whole entry): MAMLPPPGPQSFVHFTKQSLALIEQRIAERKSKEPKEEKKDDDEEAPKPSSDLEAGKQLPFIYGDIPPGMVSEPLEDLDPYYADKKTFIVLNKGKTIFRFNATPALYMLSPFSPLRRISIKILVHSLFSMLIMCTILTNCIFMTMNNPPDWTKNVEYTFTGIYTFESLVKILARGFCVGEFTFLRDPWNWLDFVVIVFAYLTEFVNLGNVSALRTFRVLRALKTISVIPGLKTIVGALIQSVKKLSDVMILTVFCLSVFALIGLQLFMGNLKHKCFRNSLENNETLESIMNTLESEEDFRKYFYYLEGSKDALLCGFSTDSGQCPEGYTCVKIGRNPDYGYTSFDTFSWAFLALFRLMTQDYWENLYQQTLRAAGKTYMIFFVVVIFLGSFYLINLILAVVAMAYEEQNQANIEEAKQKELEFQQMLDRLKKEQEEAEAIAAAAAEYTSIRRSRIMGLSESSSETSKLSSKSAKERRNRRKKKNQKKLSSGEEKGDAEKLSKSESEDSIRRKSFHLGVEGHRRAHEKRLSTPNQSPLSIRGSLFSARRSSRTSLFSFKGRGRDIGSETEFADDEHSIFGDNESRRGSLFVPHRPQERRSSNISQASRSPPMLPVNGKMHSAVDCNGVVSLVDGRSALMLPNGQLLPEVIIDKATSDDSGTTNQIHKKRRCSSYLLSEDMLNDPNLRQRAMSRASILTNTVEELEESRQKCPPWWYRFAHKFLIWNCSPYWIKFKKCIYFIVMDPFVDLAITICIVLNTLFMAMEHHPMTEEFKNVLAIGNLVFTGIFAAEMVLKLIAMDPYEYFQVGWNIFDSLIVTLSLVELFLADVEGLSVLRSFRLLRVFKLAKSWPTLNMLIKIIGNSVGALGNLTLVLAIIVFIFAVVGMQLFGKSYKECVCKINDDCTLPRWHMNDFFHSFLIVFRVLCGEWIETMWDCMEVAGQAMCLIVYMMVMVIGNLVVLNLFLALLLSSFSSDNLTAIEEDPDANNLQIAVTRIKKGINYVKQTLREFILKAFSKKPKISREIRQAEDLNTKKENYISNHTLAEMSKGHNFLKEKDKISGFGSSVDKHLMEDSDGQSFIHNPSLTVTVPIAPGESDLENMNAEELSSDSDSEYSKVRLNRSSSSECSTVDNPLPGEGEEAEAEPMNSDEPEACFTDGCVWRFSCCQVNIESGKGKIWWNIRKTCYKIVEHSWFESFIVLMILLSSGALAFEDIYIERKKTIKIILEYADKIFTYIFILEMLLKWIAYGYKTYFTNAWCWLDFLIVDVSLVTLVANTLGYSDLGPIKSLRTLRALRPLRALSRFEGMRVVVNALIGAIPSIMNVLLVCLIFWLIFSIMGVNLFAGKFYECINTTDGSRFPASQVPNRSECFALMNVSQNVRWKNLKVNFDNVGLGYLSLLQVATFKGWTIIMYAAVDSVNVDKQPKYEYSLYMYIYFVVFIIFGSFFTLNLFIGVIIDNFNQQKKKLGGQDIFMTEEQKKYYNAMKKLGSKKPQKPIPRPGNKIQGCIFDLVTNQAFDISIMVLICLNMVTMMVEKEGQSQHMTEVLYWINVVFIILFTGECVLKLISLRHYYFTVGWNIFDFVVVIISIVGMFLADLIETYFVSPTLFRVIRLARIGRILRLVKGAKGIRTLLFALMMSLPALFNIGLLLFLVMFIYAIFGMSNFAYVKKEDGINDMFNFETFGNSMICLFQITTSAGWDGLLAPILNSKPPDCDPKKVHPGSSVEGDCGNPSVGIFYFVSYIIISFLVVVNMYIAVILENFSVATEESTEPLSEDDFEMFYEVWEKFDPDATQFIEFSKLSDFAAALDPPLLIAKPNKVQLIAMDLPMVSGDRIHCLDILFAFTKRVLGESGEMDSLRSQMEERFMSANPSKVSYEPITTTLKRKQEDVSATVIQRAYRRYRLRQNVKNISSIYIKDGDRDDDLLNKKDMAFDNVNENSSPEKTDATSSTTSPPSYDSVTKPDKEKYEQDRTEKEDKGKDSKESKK

The assay has as its target T1, NaV 1.7 (Homo sapiens, UniProt Q15858).
T1 construct: expressed in transfected cells; host or cells: HEK cells
Kind of assay: E-VIPR optical membrane potential assay with electrical stimulation. Particulars: active against one or more sodium channels; assay/subtype not specified in Table 4; read-out: IC50 Binned Activity Data. The format is cell-based. The source says:
E-VIPR Optical Membrane Potential Assay Method with Electrical Stimulation
Sodium channels are voltage-dependent proteins that can be activated by inducing membrane voltage changes by applying electric fields. The electrical stimulation instrument and methods of use are described in Ion Channel Assay Methods PCT/US01/21652, herein incorporated by reference and are referred to as E-VIPR. The instrument comprises a microtiter plate handler, an optical system for exciting the coumarin dye while simultaneously recording the coumarin and oxonol emissions, a waveform generator, a current- or voltage-controlled amplifier, and a device for inserting electrodes in well. Under integrated computer control, this instrument passes user-programmed electrical stimulus protocols to cells within the wells of the microtiter plate.
24 hours before the assay on E-VIPR, HEK cells expressing human NaV subtype, like NaV 1.7, are seeded in 384-well poly-lysine coated plates at 15,000-20,000 cells per well. Other subtypes are performed in an analogous mode in a cell line expressing the NaV of interest. HEK cells are grown in media (exact composition is specific to each cell type and NaV subtype) supplemented with 10% FBS (Fetal Bovine Serum, qualified; GibcoBRL #16140-071) and 1% Pen-Strep (Penicillin-Streptomycin; GibcoBRL #15140-122). Cells are grown in vented cap flasks, in 90% humidity and 10% CO2, to 100% confluence. They are usually split by trypsinization 1:10 or 1:20, depending on scheduling needs, and grown for 2-3 days before the next split.
• 100 mg/mL Pluronic F-127 (Sigma #P2443), in dry DMSO • Compound Plates: 384-well round bottom plate, e.g. Corning 384-well Polypropylene Round Bottom #3656 • Cell Plates: 384-well tissue culture treated plate, e.g. Greiner #781091-1B • 10 mM DiSBAC6(3) (Aurora #00-100-010) in dry DMSO • 10 mM CC2-DMPE (Aurora #00-100-008) in dry DMSO • 200 mM ABSC1 in H2O
Bath1 buffer. Glucose 10 mM (1.8 g/L), Magnesium Chloride (Anhydrous), 1 mM (0.095 g/L), Calcium Chloride, 2 mM (0.222 g/L), HEPES 10 mM (2.38 g/L), Potassium Chloride, 4.5 mM (0.335 g/L), Sodium Chloride 160 mM (9.35 g/L).
Hexyl Dye Solution: Bath1 Buffer+0.5% β-cyclodextrin (make this prior to use, Sigma #C4767), 8 μM CC2-DMPE+2.5 μM DiSBAC6(3). To make the solution Add volume of 10% Pluronic F127 stock equal to volumes of CC2-DMPE+DiSBAC6(3). The order of preparation is first mix Pluronic and CC2-DMPE, then add DiSBAC6(3) while vortexing, then add Bath1+β-Cyclodextrin.
1) Pre-spot compounds (in neat DMSO) into compound plates. Vehicle control (neat DMSO), the positive control (20 mM DMSO stock tetracaine, 125 μM final in assay) and test compounds are added to each well at 160× desired final concentration in neat DMSO. Final compound plate volume will be 80 μL (80-fold intermediate dilution from 1 μL DMSO spot; 160-fold final dilution after transfer to cell plate). Final DMSO concentration for all wells in assay is 0.625%.
2) Prepare Hexyl Dye Solution.
3) Prepare cell plates. On the day of the assay, medium is aspirated and cells are washed three times with 100 μL of Bath1 Solution, maintaining 25 μL residual volume in each well.
4) Dispense 25 μL per well of Hexyl Dye Solution into cell plates. Incubate for 20-35 minutes at room temp or ambient conditions.
5) Dispense 80 μL per well of Bath1 into compound plates. Acid Yellow-17 (1 mM) is added and Potassium Chloride can be altered from 4.5 to 20 mM depending on the NaV subtype and assay sensitivity.
6) Wash cell plates three times with 100 μL per well of Bath1, leaving 25 μL of residual volume. Then transfer 25 uL per well from Compound Plates to Cell Plates. Incubate for 20-35 minutes at room temp/ambient condition
7) Read Plate on E-VIPR. Use the current-controlled amplifier to deliver stimulation wave pulses for typically 9 seconds and a scan rate of 400 Hz. A pre-stimulus recording is performed for 0.5 seconds to obtain the un-stimulated intensities baseline. […]
On to `COc1cc(C(=O)N2CC[C@]3(c4ncccc4F)OCOC3C2)ccc1OCC1CC(F)(F)C1` (stereo partly drawn) [Compound 1], for which the concentration for half-maximal inhibition (IC50) is not above 2 µM. Consider `Cc1cc(C(=O)N2CC[C@]3(c4cc(C(F)(F)F)ccn4)OCOC3C2)ccc1OCC(C)(C)F` (stereo partly drawn) [Compound 2], for which the IC50 is not above 2 µM. Take `COc1ccnc([C@]23CCN(C(=O)c4ccc(OCC(F)(F)C(F)F)c(OC)c4)CC2OCO3)c1` (stereo partly drawn) [Compound 3]: the IC50 was not above 2 µM. Regarding `COc1cc(C(=O)N2CC[C@]3(c4cc(F)cc(F)c4)OCOC3C2)ccc1OCCOC(F)(F)F` (stereo partly drawn) [Compound 4], the IC50 was not above 2 µM. As to `Cc1cc(C(=O)N2CC[C@]3(c4ncccn4)OCOC3C2)ccc1OC(C)C` (stereo partly drawn) [Compound 5], the IC50 was more than 5 µM. For the molecule `COc1cc(C(=O)N2CC[C@@]3(c4nccs4)OCOC3C2)ccc1OCC(C)(C)F` (stereo partly drawn) [Compound 6], the IC50 was more than 5 µM. With `COc1cc(C(=O)N2CC[C@]3(c4ncccn4)OCOC3C2)ccc1OCC(C)(C)F` (stereo partly drawn) [Compound 7], the half-maximal inhibitory concentration (IC50) was more than 5 µM. In the case of `COc1cc(C(=O)N2CC[C@@]3(c4ccccc4)OCOC3C2)ccc1OCC(C)(C)O` (stereo partly drawn) [Compound 8], the 50% inhibitory concentration (IC50) is more than 5 µM. On to `O=C(c1ccc(O)c(Cl)c1)N1CC[C@]2(c3ccccn3)OCOC2C1` (stereo partly drawn) [Compound 9], for which the half-inhibitory concentration (IC50) was more than 5 µM. To `CC(C)Oc1ccc(C(=O)N2CCC3(c4ccccc4)CC3C2)cn1` (stereo not drawn) [Compound 10] belongs more than 5 µM; to `COc1c(F)cccc1C(=O)N1CCC2(c3ccccc3)CC2C1` (stereo not drawn) [Compound 11], more than 5 µM. `COc1cc(C(=O)N2CC[C@]3(c4ncccn4)OCOC3C2)ccc1OCCOC(F)(F)F` (stereo partly drawn) [Compound 12]: the half-inhibitory concentration (IC50) was more than 5 µM. As to `Cc1cc(C(=O)N2CCC3(c4ccccc4)OCC3C2)ccc1OC(C)C` (stereo not drawn) [Compound 13], the IC50 is more than 5 µM.

Consider `COc1ccc(C(=O)N2CCC3(c4ccccc4)CC3C2)nc1C` (stereo not drawn) [Compound 14], for which the IC50 was in the range of 2 to 5 µM. As to `CCS(=O)(=O)c1ccc(C(=O)N2CCC3(c4ccccc4)CC3C2)cc1C` (stereo not drawn) [Compound 15], the IC50 was 2 to 5 µM. For the molecule `CC(C)Oc1ccc(C(=O)N2CCC3(c4ccccc4)CC3C2)cc1F` (stereo not drawn) [Compound 16], the IC50 was in the range of 2 to 5 µM.

`CC(C)(O)COc1ccc(C(=O)N2CC[C@@]3(c4nccs4)OCOC3C2)cc1Cl` (stereo partly drawn) [Compound 17]: the concentration for half-maximal inhibition (IC50) was in the range of 2 to 5 µM. With `Cc1cc(C(=O)N2CCC3(c4ccccc4)CC3C2)cnc1OC(C)C` (stereo not drawn) [Compound 18], the IC50 lay within 2 to 5 µM. In the case of `CC(C)Oc1ccc(C(=O)N2CCC3(c4ccccc4)CC3C2)c(F)c1` (stereo not drawn) [Compound 19], the half-inhibitory concentration (IC50) fell in the range of 2 to 5 µM. With `O=C(c1cccc2c1OCC2)N1CCC2(c3ccccc3)CC2C1` (stereo not drawn) [Compound 20], the half-inhibitory concentration (IC50) is 2 to 5 µM. In the case of `CC(C)COc1ccc(C(=O)N2CCC3(c4ccccc4)CC3C2)nc1` (stereo not drawn) [Compound 21] it was 2 to 5 µM.

Consider `CC(C)(O)COc1ccc(C(=O)N2CC[C@]3(c4nccs4)OCOC3C2)cc1Cl` (stereo partly drawn) [Compound 22], for which the concentration for half-maximal inhibition (IC50) was 2 to 5 µM. In the case of `COc1cc(C(=O)N2CC[C@]3(c4ccccn4)OCOC3C2)ccc1OCC(C)(C)F` (stereo partly drawn) [Compound 23], the IC50 fell in the range of 2 to 5 µM. In the case of `COc1cc(C(=O)N2CC[C@]3(c4nccs4)OCOC3C2)ccc1OCC(C)(C)F` (stereo partly drawn) [Compound 24], the IC50 lay in the range of 2 to 5 µM. On to `Cc1cc(C(=O)N2CC[C@]3(c4ccccn4)OCOC3C2)ccc1OCC(C)(C)O` (stereo partly drawn) [Compound 25], for which the IC50 lay in the range of 2 to 5 µM. Turning to `O=C(c1ccc(S(=O)(=O)NC2CC2)cc1)N1CCC2(c3ccccc3)CC2C1` (stereo not drawn) [Compound 26], the IC50 lay in the range of 2 to 5 µM.

As for `Cc1cc(C(=O)N2CC[C@]3(c4ncccn4)OCOC3C2)ccc1OCC(C)(C)F` (stereo partly drawn) [Compound 27], the IC50 was not above 2 µM. For `O=C(c1ccc(C2(O)CCC2)cc1)N1CCC2(c3ccccc3)CC2C1` (stereo not drawn) [Compound 28], the 50% inhibitory concentration (IC50) was not above 2 µM. On to `CC(C)(O)c1ccc(C(=O)N2CCC3(c4ccccc4)CC3C2)cc1` (stereo not drawn) [Compound 29], for which the IC50 was not above 2 µM. On to `Cc1cc(C(=O)N2CC[C@@]3(c4nccs4)OCOC3C2)ccc1OCC(C)(C)O` (stereo partly drawn) [Compound 30], for which the 50% inhibitory concentration (IC50) was not above 2 µM. For `Cc1cc(C(=O)N2CC[C@]3(c4nccs4)OCOC3C2)ccc1OCC(C)(C)O` (stereo partly drawn) [Compound 31], the concentration for half-maximal inhibition (IC50) is not above 2 µM. As to `COc1cc(C(=O)N2CC[C@]3(c4ccc(F)cc4)OCOC3C2)ccc1COCCC(F)(F)F` (stereo partly drawn) [Compound 32], the concentration for half-maximal inhibition (IC50) is not above 2 µM. Consider `O=C(c1cccc2cccnc12)N1CCC2(c3ccccc3)OCC2C1` (stereo not drawn) [Compound 33], for which the IC50 is not above 2 µM. To `COc1cccnc1[C@]12CCN(C(=O)c3ccc(OCC(C)(C)F)c(C)c3)CC1OCO2` (stereo partly drawn) [Compound 34] belongs not above 2 µM; to `CC(C)Oc1ccc(C(=O)N2CCC3(c4ccccc4)CC3C2)cc1C#N` (stereo not drawn) [Compound 35], not above 2 µM; to `COc1cc(C(=O)N2CC[C@@]3(c4ccccc4)OCOC3C2)ccc1OCC(C)(C)F` (stereo partly drawn) [Compound 36], not above 2 µM. In the case of `CC(C)(O)Cc1ccc(C(=O)N2CCC3(c4ccccc4)CC3C2)cc1F` (stereo not drawn) [Compound 37] it was not above 2 µM; in that of `COc1cc(C(=O)N2CC[C@]3(c4ccc(F)cc4)OCOC3C2)ccc1OCC(C)(C)F` (stereo partly drawn) [Compound 38], not above 2 µM. As for `COc1cc(C(=O)N2CC[C@]3(c4cscn4)OCOC3C2)ccc1OCCOC(F)(F)F` (stereo partly drawn) [Compound 39], the IC50 is more than 5 µM. With `COc1cc(C(=O)N2CC[C@]3(c4ccccn4)OCOC3C2)cc(F)c1OCCC(F)(F)F` (stereo partly drawn) [Compound 40], the concentration for half-maximal inhibition (IC50) was not above 2 µM.

With `COc1cc(C(=O)N2CC[C@]3(c4ncccc4OC)OCOC3C2)ccc1OCCOC(F)(F)F` (stereo partly drawn) [Compound 41], the IC50 is not above 2 µM. Regarding `COc1cc(C(=O)N2CC[C@]3(c4ccccc4)OCOC3C2)ccc1OCC(C)(C)O` (stereo partly drawn) [Compound 42], the IC50 is not above 2 µM. Consider `O=C(c1cccc2cccnc12)N1CC[C@@]2(c3ccccc3)OCOC2C1` (stereo partly drawn) [Compound 43], for which the IC50 was in the range of 2 to 5 µM. As to `Cc1cc(C(=O)N2CCC3(c4ccc(F)cc4)CC3C2)ccc1OCC(C)(C)O` (stereo not drawn) [Compound 44], the IC50 was not above 2 µM.

On to `Cc1cc(C(=O)N2CC[C@]3(c4ccccc4)OCOC3C2)ccc1C(C)(C)O` (stereo partly drawn) [Compound 45], for which the IC50 was not above 2 µM. As to `COc1cc(C(=O)N2CC[C@@]3(c4ccn(C)n4)OCOC3C2)ccc1OCCOC(F)(F)F` (stereo partly drawn) [Compound 46], the half-maximal inhibitory concentration (IC50) was not above 2 µM.

In the case of `COc1cc(C(=O)N2CC[C@@]3(c4ccc(F)cc4)OCOC3C2)ccc1OCC(C)(C)F` (stereo partly drawn) [Compound 47], the 50% inhibitory concentration (IC50) was not above 2 µM. For `COc1cc(C(=O)N2CC[C@@]3(c4ccc(F)cc4)OCOC3C2)ccc1COCCC(F)(F)F` (stereo partly drawn) [Compound 48], the concentration for half-maximal inhibition (IC50) is not above 2 µM.

`Cc1cc(C(=O)N2CC[C@@]3(c4ccccc4)OCOC3C2)ccc1C(C)(C)O` (stereo partly drawn) [Compound 49]: the IC50 was more than 5 µM.

As to `COc1cc(C(=O)N2CC[C@]3(c4ccccn4)OCOC3C2)ccc1COCC(F)(F)F` (stereo partly drawn) [Compound 50], the 50% inhibitory concentration (IC50) was not above 2 µM.

Turning to `O=C(c1ccc2c(c1)OCC(COC(F)(F)F)O2)N1CC[C@]2(c3ccccc3)OCOC2C1` (stereo partly drawn) [Compound 51], the IC50 lay in the range of 2 to 5 µM.

The values above are taken from patent publication US10233191B2, “Fused piperidine amides as modulators of ion channels” (Vertex Pharmaceuticals Incorporated, priority 2013, dated 2019).
